Patent US8470334B2, “Method of inducing an antiviral immune response against HIV-1 utilizing chimeric HIV Env proteins comprising CD4 mini-proteins or CD4 mimetics” (Novartis Vaccines & Diagnostics, Inc, priority 2002, dated 2013)

Target: gp120 (Human immunodeficiency virus type 1 group M subtype B, UniProt P04578)
Assay: competitive ELISA of gp120 binding
Parameters: species or system HIV-1
Conditions: as compared to previous double mutant (CD4M8)
Source text: In a second step, each putatively active side chain of the miniprotein was replaced by an Ala residue (“Ala scanning”).

Question: For `CC(C)C[C@@H]1NC(=O)CNC(=O)[C@H](CC(C)C)NC(=O)[C@H](CO)NC(=O)[C@H](CCCCN)NC(=O)[C@@H]2CSSC[C@@H](C(=O)NCC(=O)N3CCC[C@H]3C(=O)O)NC(=O)[C@H](C)NC(=O)[C@@H]3CSSC[C@H](NC(=O)[C@H](CCCNC(=N)N)NC(=O)[C@H](C)NC(=O)[C@H](CC(C)C)NC(=O)[C@H](CC(N)=O)NC(=O)[C@@H](N)CSSC[C@H](NC(=O)[C@H](CCCCN)NC(=O)CNC(=O)[C@H](CC(C)C)NC1=O)C(=O)N[C@@H](C)C(=O)NCC(=O)N[C@@H](CO)C(=O)N[C@@H](Cc1ccccc1)C(=O)N3)C(=O)N[C@@H](CCC(N)=O)C(=O)N[C@@H](CC(C)C)C(=O)N[C@@H](CCCNC(=N)N)C(=O)N2` [CD4M9], which “further increase of binding affinity” value is on record?
Answer: ten-fold
